Earlier results, collected in patent publication US12324861B2, “Beaded nonwoven membrane as a drug delivery system” (CEBIOTEX, S.L., priority 2018, dated 2025).

Columns and labels:
[1] = nude mice
[2] = systemic administration in patients

CCc1c2c(nc3ccc(OC(=O)N4CCC(N5CCCCC5)CC4)cc13)-c1cc3c(c(=O)n1C2)COC(=O)[C@]3(O)CC [Irinotecan]
conversion to SN-38 [1]: > 70% | conversion into the active derivative (SN-38) [2]: less than 10%
